# Counter-ions that a name gives are not always drawn.
# Experiments:
# [1] = pH of 1% solution or suspension in water; type: physicochemical; conditions: 1% in water
# [2] = Solid state stability: heat, humidity, xenon light (Table 15); type: physicochemical
# [3] = Hygroscopicity by TGA after one day at ambient temperature and 93% relative humidity; type: physicochemical; conditions: ambient temperature
# Procedure: The hygroscopicity of the salts of the invention was determined by TGA after one day at ambient temperature and 93% relative humidity.
# [4] = pH 3.0 buffer, ambient temperature, at least 20 hours; listed as Control - free base form B
# Procedure: The solubility of the salts of the invention was determined in pH 6.8, pH 3.0 and pH 1.0 buffers by suspending 1-5 mg of each salt in 10 mL of corresponding aqueous solution. The samples were allowed to equilibrate at ambient temperature for at least 20 hours for pH 6.8 and 3.0 or about 5 hours for pH 1.0. The supernatant was filtered and used for the solubility determination by UV-VIS spectroscopy.
# [5] = Intrinsic Dissolution Rate (rotating disk method); type: physicochemical; conditions: 37° C., 200 rpm
# Procedure: Intrinsic Dissolution Rate (IDR): Dissolution rate measurements were performed at 37° C. using the rotating disk method (VanKell Instrument). A single rotation speed of 200 rpm was used. For IDR in 0.1 N HCl, an 800 mL volume, and for IDE in water, a 200 mL volume were used. The solution was continuously pumped through a UV measuring cell and recycled to the dissolution vessel.
# [6] = pKa values of the free base; type: physicochemical; conditions: two values
# Procedure: In a second step of the present inventive method, the 4-methyl-N-[3-(4-methyl-imidazol-1-yl)-5-trifluoromethyl-phenyl]-3-(4-pyridin-3-yl-pyrimidin-2-ylamino)-benzamide free base is treated with an appropriate acid of the formula HB. […] Suitable acids include, without limitation, inorganic acids such as hydrochloric acid, phosphoric acid, sulfuric acid, and sulfonic acid and organic acids such as methane sulfonic acid, ethane sulfonic acid, benzene sulfonic acid, p-toluene sulfonic acid, citric acid, fumaric acid, gentisic acid, malonic acid, maleic acid, and tartaric acid.
# [7] = Stability of solutions or suspensions (Table 15); type: physicochemical
# Bulk corrosivity = type: physicochemical; conditions: 2 day, 80% relative humidity with steel coupon
# [8] = Solid-state behaviour of the hydrochloride salt (equilibration, grinding, compression); type: physicochemical
# [9] = Hygroscopicity (moisture uptake v. relative humidity); type: physicochemical; conditions: when first tested
# Procedure: Hygroscopicity: Sorption/desorption isotherms were collected using a Surface Measurements Systems dynamic vapor sorption device (DVS-1). The measurements were carried out at 25° C.
# [10] = Decomposition temperature by TGA; type: physicochemical; conditions: as stated in the description of the embodiments; listed as hydrochloride salt
# Procedure: The LOD and decomposition temperature of the salts of the invention were determined by TGA, and the melting point was determined by DSC.
# [11] = Solid state, 1 week 80° C., 75% relative humidity
# [12] = Solid state, 1 week 80° C., 75% relative humidity, 30% in mixture 1
# [13] = Solid state, 1 week 80° C., 75% relative humidity, 30% in mixture 2
# [14] = Solid state, 1 week 80° C., 75% relative humidity, Bulk (HPLC)
# [15] = Solid state, 1 week 80° C., tight container
# [16] = Solid state, 1 week 80° C., tight container, 30% in mixture 1
# [17] = Solid state, 1 week 80° C., tight container, 30% in mixture 2
# [18] = Solid state, 1 week 80° C., tight container, Bulk (HPLC)
# [19] = Xenon light (approximately 200 kLuxh)
# [20] = Xenon light (approximately 200 kLuxh), Bulk (HPLC)
# [21] = 0.1% solutions or suspensions, 1 week at 80° C., Acetonitrile
# [22] = 0.1% solutions or suspensions, 1 week at 80° C., Ethanol
# [23] = 0.1% solutions or suspensions, 1 week at 80° C., Methanol
# [24] = 0.1% solutions or suspensions, 1 week at 80° C., Water (pH measured: 4.74; pH measured for HCl salt: 4.22)
# [25] = 0.1% solutions or suspensions, 1 week at 80° C., pH 1 (pH measured: 1.26)
# [26] = 0.1% solutions or suspensions, 1 week at 80° C., pH 2 (pH measured: 2.00)
# [27] = 0.1% solutions or suspensions, 1 week at 80° C., pH 3 (pH measured: 2.94)
# [28] = 0.1% solutions or suspensions, 1 week at 80° C., pH 5 (pH measured: 5.01)
# [29] = 0.1% solutions or suspensions, 1 week at 80° C., pH 7 (pH measured: 6.02)
# [30] = 0.1% solutions or suspensions, 1 week at 80° C., pH 9 (pH measured: 8.92)
# [31] = 0.1% solutions or suspensions, 1 week at 80° C., pH 11 (pH measured: 10.86)
# [32] = 0.1% solutions or suspensions, PH 1, 1 week @ 50° C.
# [33] = 2% solutions or suspensions, 1 day at room temperature, 0.5% CMC
# [34] = 2% solutions or suspensions, 1 day at room temperature, 0.5% HPMC cellulose 4000
# [35] = 2% solutions or suspensions, 1 day at room temperature, 0.8% Tween 80
# [36] = 5% solutions in DMSO, 1 day at room temperature, 1:100 dilution in pH 6.8 buffer
smiles,measurement,setting,value
"Cc1cn(-c2cc(NC(=O)c3ccc(C)c(Nc4nccc(-c5cccnc5)n4)c3)cc(C(F)(F)F)c2)cn1 [Free base (form B), 4-methyl-N-[3-(4-methyl-imidazol-1-yl)-5-trifluoromethyl-phenyl]-3-(4-pyridin-3-yl-pyrimidin-2-ylamino)-benzamide]",pH of 1% solution or suspension in water,[1]; listed as Free base form B,7.99
same,Bulk (XRPD),[2]; [11],No change
same,Assay,[2]; [12],99.38
same,Assay [% area]: bracketed % area,[2]; [12],100.00 % area
same,Assay,[2]; [13],89.37
same,Assay [% area]: bracketed % area,[2]; [13],96.02 % area
same,Assay,[2]; [14],99.97
same,Assay [% area]: bracketed % area,[2]; [14],100.00 % area
same,Bulk (XRPD),[2]; [15],No change
same,Assay,[2]; [16],100.11
same,Assay [% area]: bracketed % area,[2]; [16],100.00 % area
same,Assay,[2]; [17],94.28
same,Assay [% area]: bracketed % area,[2]; [17],97.75 % area
same,Assay,[2]; [18],99.77
same,Assay [% area]: bracketed % area,[2]; [18],100.00 % area
same,Bulk (XRPD),[2]; [19],No change
same,Assay,[2]; [20],96.03
same,Assay [% area]: bracketed % area,[2]; [20],100.00 % area
same,% moisture gain,[3]; listed as Control - free base form B,0.08%
same,Solubility at pH 3.0,[4],2.8 μg/mL
same,Intrinsic dissolution rate,"[5]; Water, listed as Free base form B",0.0013 mg min^−1 cm^−2
same,Intrinsic dissolution rate,[5]; pH 1 (0.1N HCl),0.17 mg min^−1 cm^−2
same,pKa,[6],5.1
same,Appearance,[7]; [21],A*
same,Assay,[7]; [21],100.16
same,Assay [% area]: bracketed % area,[7]; [21],100.00 % area
same,Appearance,[7]; [22],A*
same,Assay,[7]; [22],99.85
same,Assay [% area]: bracketed % area,[7]; [22],99.96 % area
same,Appearance,[7]; [23],A*
same,Assay,[7]; [23],98.04
same,Assay [% area]: bracketed % area,[7]; [23],98.90 % area
same,Appearance,[7]; [24],A↓
same,Assay,[7]; [24],101.93
same,Assay [% area]: bracketed % area,[7]; [24],100.00 % area
same,Appearance,[7]; [25],A*
same,Assay,[7]; [25],50.22
same,Assay [% area]: bracketed % area,[7]; [25],45.31 % area
same,Appearance,[7]; [26],B↓
same,Assay,[7]; [26],96.00
same,Assay [% area]: bracketed % area,[7]; [26],94.86 % area
same,Appearance,[7]; [27],A↓
same,Assay,[7]; [27],102.19
same,Assay [% area]: bracketed % area,[7]; [27],100.00 % area
same,Appearance,[7]; [28],A↓
same,Assay,[7]; [28],100.80
same,Assay [% area]: bracketed % area,[7]; [28],100.00 % area
same,Appearance,[7]; [29],A↓
same,Assay,[7]; [29],100.14
same,Assay [% area]: bracketed % area,[7]; [29],100.00 % area
same,Appearance,[7]; [30],A↓
same,Assay,[7]; [30],99.19
same,Assay [% area]: bracketed % area,[7]; [30],100.00 % area
same,Appearance,[7]; [31],A↓
same,Assay,[7]; [31],100.50
same,Assay [% area]: bracketed % area,[7]; [31],100.00 % area
same,Appearance,[7]; [32],A*
same,Assay,[7]; [32],94.01
same,Assay [% area]: bracketed % area,[7]; [32],93.44 % area
same,Appearance,[7]; [33],A↓
same,Assay,[7]; [33],98.28
same,Assay [% area]: bracketed % area,[7]; [33],100.00 % area
same,Appearance,[7]; [34],A↓
same,Assay,[7]; [34],98.27
same,Assay [% area]: bracketed % area,[7]; [34],"100,00 % area"
same,Appearance,[7]; [35],A↓
same,Assay,[7]; [35],98.78
same,Assay [% area]: bracketed % area,[7]; [35],100.00 % area
same,Appearance,[7]; [36],A↓
same,Assay,[7]; [36],96.98
same,Assay [% area]: bracketed % area,[7]; [36],100.00 % area
same,Assay,[7]; Unstressed,100.99
same,Assay [% area]: bracketed % area,[7]; Unstressed,100.00 % area
"Cc1cn(-c2cc(NC(=O)c3ccc(C)c(Nc4nccc(-c5cccnc5)n4)c3)cc(C(F)(F)F)c2)cn1 [Hydrochloride monohydrate (form B), 4-methyl-N-[3-(4-methyl-imidazol-1-yl)-5-trifluoromethyl-phenyl]-3-(4-pyridin-3-yl-pyrimidin-2-ylamino)-benzamide monohydrochloride monohydrate salt]",Bulk corrosivity,Bulk corrosivity,No change
same,behaviour upon compression,[8]; compression,can withstand compression
same,behaviour upon grinding,[8]; grinding,becomes amorphous
same,moisture uptake,[9]; 60% relative humidity,up to 2%
same,moisture uptake,[9]; 95% relative humidity,up to 2.7%
same,pH of 1% solution or suspension in water,[1],2.53
same,Bulk (XRPD),[2]; [11],No change
same,Assay,[2]; [12],100.88
same,Assay [% area]: bracketed % area,[2]; [12],100.00 % area
same,Assay,[2]; [13],92.17
same,Assay [% area]: bracketed % area,[2]; [13],97.99 % area
same,Assay,[2]; [14],100.71
same,Assay [% area]: bracketed % area,[2]; [14],100.00 % area
same,Bulk (XRPD),[2]; [15],No change
same,Assay,[2]; [16],101.23
same,Assay [% area]: bracketed % area,[2]; [16],100.00 % area
same,Assay,[2]; [17],93.43
same,Assay [% area]: bracketed % area,[2]; [17],97.82 % area
same,Assay,[2]; [18],100.77
same,Assay [% area]: bracketed % area,[2]; [18],100.00 % area
same,Bulk (XRPD),[2]; [19],No change
same,Assay,[2]; [20],99.73
same,Assay [% area]: bracketed % area,[2]; [20],100.00 % area
same,% moisture gain,[3]; listed as Hydrochloride (form B),0.20%
same,decomposes at,[10],about 173 °C
same,Intrinsic dissolution rate,[5]; Water,0.0024 mg min^−1 cm^−2
same,Appearance,[7]; [21],B↓
same,Assay,[7]; [21],100.33
same,Assay [% area]: bracketed % area,[7]; [21],100.00 % area
same,Appearance,[7]; [22],A*
same,Assay,[7]; [22],100.41
same,Assay [% area]: bracketed % area,[7]; [22],100.00 % area
same,Appearance,[7]; [23],A*
same,Assay,[7]; [23],99.169
same,Assay [% area]: bracketed % area,[7]; [23],98.72 % area
same,Appearance,[7]; [24],A↓
same,Assay,[7]; [24],101.43
same,Assay [% area]: bracketed % area,[7]; [24],100.00 % area
same,Appearance,[7]; [25],A*
same,Assay,[7]; [25],46.68
same,Assay [% area]: bracketed % area,[7]; [25],42.93 % area
same,Appearance,[7]; [26],B↓
same,Assay,[7]; [26],91.77
same,Assay [% area]: bracketed % area,[7]; [26],91.61 % area
same,Appearance,[7]; [27],B↓
same,Assay,[7]; [27],98.84
same,Assay [% area]: bracketed % area,[7]; [27],100.00 % area
same,Appearance,[7]; [28],A↓
same,Assay,[7]; [28],100.02
same,Assay [% area]: bracketed % area,[7]; [28],100.00 % area
same,Appearance,[7]; [29],B↓
same,Assay,[7]; [29],99.56
same,Assay [% area]: bracketed % area,[7]; [29],100.00 % area
same,Appearance,[7]; [30],B↓
same,Assay,[7]; [30],101.19
same,Assay [% area]: bracketed % area,[7]; [30],100.00 % area
same,Appearance,[7]; [31],B↓
same,Assay,[7]; [31],102.19
same,Assay [% area]: bracketed % area,[7]; [31],100.00 % area
same,Appearance,[7]; [32],A*
same,Assay,[7]; [32],94.14
same,Assay [% area]: bracketed % area,[7]; [32],93.21 % area
same,Appearance,[7]; [33],A↓
same,Assay,[7]; [33],103.06
same,Assay [% area]: bracketed % area,[7]; [33],100.00 % area
same,Appearance,[7]; [34],A↓
same,Assay,[7]; [34],100.44
same,Assay [% area]: bracketed % area,[7]; [34],100.00 % area
same,Appearance,[7]; [35],A↓
same,Assay,[7]; [35],102.42
same,Assay [% area]: bracketed % area,[7]; [35],100.00 % area
same,Appearance,[7]; [36],A↓
same,Assay,[7]; [36],101.85
same,Assay [% area]: bracketed % area,[7]; [36],100.00 % area
same,Assay,[7]; Unstressed,99.10
same,Assay [% area]: bracketed % area,[7]; Unstressed,100.00 % area

# Source: patent publication US8580806B2, “Salts of 4-methyl N-[3-(4-methyl-imidazol-1-yl)-5-trifluoromethyl-phenyl]-3-(4-pyridin-3-yl-pyrimidin-2-ylamino)-benzamide” (Novartis AG, priority 2005, dated 2013)
